PubChem BioAssay AID624454 (Sanford-Burnham Center for Chemical Genomics, 2012)
“And” between values parts separate entries of the source, which are not always exact repeats. Equal entries are not always repeated. The source made the active and inactive calls.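 The calls were made as follows: active = EC50 of 10 µM or lower; inactive = the rest.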

system: H9c2 cardiomyocytes, 2-deoxyglucose injury, ATP luminescence, 2 h; experiment: cardioprotective modulators, 2-DG ATP loss – H9c2 cells, ATP luminescence, set 2, SAR follow-up (AID 624454)

Question: How did the EC50 (protection from 2-deoxyglucose ATP loss, increase) turn out when `COc1ccc(-c2cc(C(=O)Nc3cccc(C(C)=O)c3)c3ccccc3n2)cc1OC` was run?
Answer: The EC50 (protection from 2-deoxyglucose ATP loss, increase) was 42.8 µM (inactive).

Question: For `O=C1c2ccccc2N2C(=O)c3ccccc3C2N1c1ccccc1` (configuration not stated), which EC50 (protection from 2-deoxyglucose ATP loss, increase) is on record?
Answer: Its EC50 (protection from 2-deoxyglucose ATP loss, increase) is > 79 µM (inactive).

Question: With `COc1ccc2c(c1OC)C(=O)N1c3ccccc3C(=O)N(c3cccc(Cl)c3)C21` (configuration not stated) as the molecule, how does the EC50 (protection from 2-deoxyglucose ATP loss, increase) read?
Answer: Its EC50 (protection from 2-deoxyglucose ATP loss, increase) is 45 µM (inactive).

Question: How did the EC50 (protection from 2-deoxyglucose ATP loss, increase) turn out when `COc1ccc2c(c1OC)C(=O)N1c3ccccc3C(=O)N(c3cccc(C)c3)C21` (configuration not stated) was run?
Answer: Its EC50 (protection from 2-deoxyglucose ATP loss, increase) is 53.3 µM (inactive).

Question: How did the EC50 (protection from 2-deoxyglucose ATP loss, increase) turn out when `COc1ccc2c(c1OC)C(=O)N1c3ccccc3C(=O)N(Cc3cccc(Cl)c3)C21` (configuration not stated) was run?
Answer: Its EC50 (protection from 2-deoxyglucose ATP loss, increase) is 37.9 µM (inactive).

Question: With `COc1cccc(CNC(=O)c2cc(-c3ccc(OC)c(OC)c3)nc3ccccc23)c1` as the molecule, how does the EC50 (protection from 2-deoxyglucose ATP loss, increase) read?
Answer: The EC50 (protection from 2-deoxyglucose ATP loss, increase) was 18.5 µM (inactive).

Question: For `COc1cccc(N2C(=O)c3ccccc3N3C(=O)c4ccccc4C23)c1` (configuration not stated), which EC50 (protection from 2-deoxyglucose ATP loss, increase) is on record?
Answer: The EC50 (protection from 2-deoxyglucose ATP loss, increase) was > 79 µM (inactive).

Question: `COc1cc(-c2cc(C(=O)Nc3cccc(F)c3)c3ccccc3n2)cc(OC)c1OC` was tested. Which EC50 (protection from 2-deoxyglucose ATP loss, increase) did it give?
Answer: Its EC50 (protection from 2-deoxyglucose ATP loss, increase) is > 79 µM (inactive).

Question: For `CCN(CC(=O)Nc1ccc(OC)cc1)C(=O)c1cc(-c2cccs2)nn1-c1ccccc1`, which EC50 (protection from 2-deoxyglucose ATP loss, increase) is on record?
Answer: Its EC50 (protection from 2-deoxyglucose ATP loss, increase) is 16.1 µM (inactive) and 20.5 µM (inactive).

Question: How did the EC50 (protection from 2-deoxyglucose ATP loss, increase) turn out when `O=C1c2ccccc2N2C(=O)c3ccccc3C2N1c1cccc(Br)c1` (configuration not stated) was run?
Answer: Its EC50 (protection from 2-deoxyglucose ATP loss, increase) is > 79 µM (inactive).

Question: `COc1cc(-c2cc(C(=O)Nc3cccc(C(C)=O)c3)c3cc(Cl)ccc3n2)cc(OC)c1OC` was tested. Which EC50 (protection from 2-deoxyglucose ATP loss, increase) did it give?
Answer: Its EC50 (protection from 2-deoxyglucose ATP loss, increase) is > 79 µM (inactive).

Question: Which EC50 (protection from 2-deoxyglucose ATP loss, increase) does the source give for `COc1cc(-c2cc(C(=O)Nc3cccc(C)c3)c3ccccc3n2)cc(OC)c1OC` here?
Answer: Its EC50 (protection from 2-deoxyglucose ATP loss, increase) is > 79 µM (inactive).

Question: How did the EC50 (protection from 2-deoxyglucose ATP loss, increase) turn out when `CC(=O)c1cccc(NC(=O)c2cc(-c3ccccc3)nc3ccccc23)c1` was run?
Answer: Its EC50 (protection from 2-deoxyglucose ATP loss, increase) is 33.5 µM (inactive).

Question: For `COc1ccc2c(c1OC)C(=O)N1c3ccccc3C(=O)N(c3cccc(F)c3)C21` (configuration not stated), which EC50 (protection from 2-deoxyglucose ATP loss, increase) is on record?
Answer: Its EC50 (protection from 2-deoxyglucose ATP loss, increase) is 41.1 µM (inactive).

Question: `COc1ccc2c(c1OC)C(=O)N1c3ccccc3C(=O)N(Cc3ccccc3Cl)C21` (configuration not stated) was tested. Which EC50 (protection from 2-deoxyglucose ATP loss, increase) did it give?
Answer: The EC50 (protection from 2-deoxyglucose ATP loss, increase) was 12.8 µM (inactive).

Question: With `COc1cc(-c2cc(C(=O)Nc3cccc(Cl)c3)c3ccccc3n2)cc(OC)c1OC` as the molecule, how does the EC50 (protection from 2-deoxyglucose ATP loss, increase) read?
Answer: The EC50 (protection from 2-deoxyglucose ATP loss, increase) was > 79 µM (inactive).

Question: How did the EC50 (protection from 2-deoxyglucose ATP loss, increase) turn out when `COc1ccc(NC(=O)c2cc(-c3cc(OC)c(OC)c(OC)c3)nc3ccccc23)cc1` was run?
Answer: The EC50 (protection from 2-deoxyglucose ATP loss, increase) was > 79 µM (inactive).

Question: With `COc1cccc(CNC(=O)c2cc(-c3cc(OC)c(OC)c(OC)c3)nc3ccccc23)c1` as the molecule, how does the EC50 (protection from 2-deoxyglucose ATP loss, increase) read?
Answer: The EC50 (protection from 2-deoxyglucose ATP loss, increase) was 27.4 µM (inactive).

Question: With `CCOC(=O)c1cccc(NC(=O)c2cc(-c3cc(OC)c(OC)c(OC)c3)nc3ccccc23)c1` as the molecule, how does the EC50 (protection from 2-deoxyglucose ATP loss, increase) read?
Answer: Its EC50 (protection from 2-deoxyglucose ATP loss, increase) is > 79 µM (inactive).

Question: How did the EC50 (protection from 2-deoxyglucose ATP loss, increase) turn out when `CCN(CC(=O)Nc1ccc(OC)cc1)C(=O)c1cc(-c2cc(OC)c(OC)c(OC)c2)nc2ccccc12` was run?
Answer: Its EC50 (protection from 2-deoxyglucose ATP loss, increase) is 29.8 µM (inactive).

Question: How did the EC50 (protection from 2-deoxyglucose ATP loss, increase) turn out when `COc1cccc(NC(=O)c2cc(-c3cc(OC)c(OC)c(OC)c3)nc3ccccc23)c1` was run?
Answer: The EC50 (protection from 2-deoxyglucose ATP loss, increase) was > 79 µM (inactive).

Question: `COc1ccc2c(c1OC)C(=O)N1c3ccccc3C(=O)N(c3ccc(C)cc3)C21` (configuration not stated) was tested. Which EC50 (protection from 2-deoxyglucose ATP loss, increase) did it give?
Answer: Its EC50 (protection from 2-deoxyglucose ATP loss, increase) is 29.1 µM (inactive).

Question: With `COc1ccc(-c2cc(C(=O)Nc3cccc(C(C)=O)c3)c3ccccc3n2)cc1` as the molecule, how does the EC50 (protection from 2-deoxyglucose ATP loss, increase) read?
Answer: Its EC50 (protection from 2-deoxyglucose ATP loss, increase) is > 79 µM (inactive).

Question: Which EC50 (protection from 2-deoxyglucose ATP loss, increase) does the source give for `CCN(CC(=O)Nc1ccc(F)cc1)C(=O)c1cc(-c2cccs2)nn1-c1ccccc1` here?
Answer: Its EC50 (protection from 2-deoxyglucose ATP loss, increase) is 36.1 µM (inactive).

Question: With `COc1cccc(N2C(=O)c3ccccc3N3C(=O)c4c(ccc(OC)c4OC)C23)c1` (configuration not stated) as the molecule, how does the EC50 (protection from 2-deoxyglucose ATP loss, increase) read?
Answer: Its EC50 (protection from 2-deoxyglucose ATP loss, increase) is 78 µM (inactive).

Question: With `COc1ccc2c(c1OC)C(=O)N1c3ccccc3C(=O)N(c3cccc(Br)c3)C21` (configuration not stated) as the molecule, how does the EC50 (protection from 2-deoxyglucose ATP loss, increase) read?
Answer: The EC50 (protection from 2-deoxyglucose ATP loss, increase) was 28.4 µM (inactive) and > 79 µM (inactive).

Question: How did the EC50 (protection from 2-deoxyglucose ATP loss, increase) turn out when `COc1cc(-c2cc(C(=O)Nc3ccccc3)c3ccccc3n2)cc(OC)c1OC` was run?
Answer: The EC50 (protection from 2-deoxyglucose ATP loss, increase) was > 79 µM (inactive).

Question: With `COc1ccc2c(c1OC)C(=O)N1c3ccccc3C(=O)N(c3ccccc3)C21` (configuration not stated) as the molecule, how does the EC50 (protection from 2-deoxyglucose ATP loss, increase) read?
Answer: Its EC50 (protection from 2-deoxyglucose ATP loss, increase) is 31.9 µM (inactive).

Question: For `COc1cccc(-c2cc(C(=O)Nc3cccc(C(C)=O)c3)c3ccccc3n2)c1`, which EC50 (protection from 2-deoxyglucose ATP loss, increase) is on record?
Answer: The EC50 (protection from 2-deoxyglucose ATP loss, increase) was 37.3 µM (inactive).

Question: `CCN(CC(=O)Nc1ccccc1)C(=O)c1cc(-c2cccs2)nn1-c1ccccc1` was tested. Which EC50 (protection from 2-deoxyglucose ATP loss, increase) did it give?
Answer: Its EC50 (protection from 2-deoxyglucose ATP loss, increase) is > 79 µM (inactive).

Question: How did the EC50 (protection from 2-deoxyglucose ATP loss, increase) turn out when `COc1cc(-c2cc(C(=O)Nc3ccc(C(C)=O)cc3)c3ccccc3n2)cc(OC)c1OC` was run?
Answer: The EC50 (protection from 2-deoxyglucose ATP loss, increase) was > 79 µM (inactive).

Question: Which EC50 (protection from 2-deoxyglucose ATP loss, increase) does the source give for `COc1ccc2c(c1OC)C(=O)N1c3ccccc3C(=O)N(c3ccc(C(C)(C)C)cc3)C21` (configuration not stated) here?
Answer: Its EC50 (protection from 2-deoxyglucose ATP loss, increase) is > 79 µM (inactive).

Question: How did the EC50 (protection from 2-deoxyglucose ATP loss, increase) turn out when `COc1cc(-c2cc(C(=O)Nc3cccc(C(F)(F)F)c3)c3ccccc3n2)cc(OC)c1OC` was run?
Answer: Its EC50 (protection from 2-deoxyglucose ATP loss, increase) is > 79 µM (inactive).

Question: For `COc1cc(-c2cc(C(=O)Nc3cccc(C(C)=O)c3)c3ccccc3n2)cc(OC)c1OC`, which EC50 (protection from 2-deoxyglucose ATP loss, increase) is on record?
Answer: Its EC50 (protection from 2-deoxyglucose ATP loss, increase) is 13.7 µM (inactive) and 14.8 µM (inactive).

Question: For `COc1ccc(N2C(=O)c3ccccc3N3C(=O)c4c(ccc(OC)c4OC)C23)cc1` (configuration not stated), which EC50 (protection from 2-deoxyglucose ATP loss, increase) is on record?
Answer: The EC50 (protection from 2-deoxyglucose ATP loss, increase) was 58.4 µM (inactive).

Question: For `COc1ccc2c(c1OC)C(=O)N1c3ccccc3C(=O)N(c3cccc(C(F)(F)F)c3)C21` (configuration not stated), which EC50 (protection from 2-deoxyglucose ATP loss, increase) is on record?
Answer: The EC50 (protection from 2-deoxyglucose ATP loss, increase) was > 79 µM (inactive).

Question: With `COc1ccc2c(c1OC)C(=O)N1c3ccccc3C(=O)N(c3ccc(Br)cc3)C21` (configuration not stated) as the molecule, how does the EC50 (protection from 2-deoxyglucose ATP loss, increase) read?
Answer: Its EC50 (protection from 2-deoxyglucose ATP loss, increase) is 11.3 µM (inactive).
